Assay [1] has as its target T1, Testis-specific serine/threonine-protein kinase 1 (Homo sapiens) (UniProt Q9BXA7).
T1 sequence (whole entry): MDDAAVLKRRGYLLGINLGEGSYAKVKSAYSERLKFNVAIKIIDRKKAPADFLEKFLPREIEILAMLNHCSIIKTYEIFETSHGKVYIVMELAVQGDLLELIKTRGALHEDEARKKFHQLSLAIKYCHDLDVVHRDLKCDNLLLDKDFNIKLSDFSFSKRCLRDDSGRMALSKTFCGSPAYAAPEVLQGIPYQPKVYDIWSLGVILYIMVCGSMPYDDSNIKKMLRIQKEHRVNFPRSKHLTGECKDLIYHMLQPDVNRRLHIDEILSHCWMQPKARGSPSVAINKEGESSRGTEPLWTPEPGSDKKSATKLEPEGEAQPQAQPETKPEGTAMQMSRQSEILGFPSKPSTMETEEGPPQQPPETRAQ
In words: Selectivity interaction (KinomeScan (DiscoverX)) EUB0000695a TSSK1B. The conditions noted are these: at 100 nM.

Assay [2] deals with T2, Ankyrin repeat and protein kinase domain-containing protein 1 (Homo sapiens) (UniProt Q8NFD2).
T2 sequence (whole entry): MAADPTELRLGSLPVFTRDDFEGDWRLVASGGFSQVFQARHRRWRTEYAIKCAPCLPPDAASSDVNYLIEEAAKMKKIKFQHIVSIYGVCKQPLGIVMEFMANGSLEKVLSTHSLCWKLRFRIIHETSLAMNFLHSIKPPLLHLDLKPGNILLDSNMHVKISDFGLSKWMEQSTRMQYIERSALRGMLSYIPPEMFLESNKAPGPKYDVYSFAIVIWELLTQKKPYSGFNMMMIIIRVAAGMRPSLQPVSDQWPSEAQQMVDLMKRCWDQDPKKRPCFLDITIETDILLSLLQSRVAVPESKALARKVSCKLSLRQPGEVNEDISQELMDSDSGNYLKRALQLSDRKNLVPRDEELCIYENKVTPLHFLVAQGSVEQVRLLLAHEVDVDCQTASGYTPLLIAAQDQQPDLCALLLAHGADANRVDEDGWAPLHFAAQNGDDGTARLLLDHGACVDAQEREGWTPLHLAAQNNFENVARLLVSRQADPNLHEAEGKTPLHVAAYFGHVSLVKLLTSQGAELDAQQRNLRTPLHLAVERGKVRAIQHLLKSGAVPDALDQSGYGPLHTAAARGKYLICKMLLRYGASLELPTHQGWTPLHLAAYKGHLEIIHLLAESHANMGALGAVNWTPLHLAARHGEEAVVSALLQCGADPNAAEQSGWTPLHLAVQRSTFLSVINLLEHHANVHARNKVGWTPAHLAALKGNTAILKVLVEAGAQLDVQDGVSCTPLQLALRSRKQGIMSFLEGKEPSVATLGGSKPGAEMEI
The note with it: at 10 µM.

The target of assay [3] is T3, Cyclin-dependent kinase 11A (Homo sapiens) (UniProt Q9UQ88).
T3 sequence (whole entry): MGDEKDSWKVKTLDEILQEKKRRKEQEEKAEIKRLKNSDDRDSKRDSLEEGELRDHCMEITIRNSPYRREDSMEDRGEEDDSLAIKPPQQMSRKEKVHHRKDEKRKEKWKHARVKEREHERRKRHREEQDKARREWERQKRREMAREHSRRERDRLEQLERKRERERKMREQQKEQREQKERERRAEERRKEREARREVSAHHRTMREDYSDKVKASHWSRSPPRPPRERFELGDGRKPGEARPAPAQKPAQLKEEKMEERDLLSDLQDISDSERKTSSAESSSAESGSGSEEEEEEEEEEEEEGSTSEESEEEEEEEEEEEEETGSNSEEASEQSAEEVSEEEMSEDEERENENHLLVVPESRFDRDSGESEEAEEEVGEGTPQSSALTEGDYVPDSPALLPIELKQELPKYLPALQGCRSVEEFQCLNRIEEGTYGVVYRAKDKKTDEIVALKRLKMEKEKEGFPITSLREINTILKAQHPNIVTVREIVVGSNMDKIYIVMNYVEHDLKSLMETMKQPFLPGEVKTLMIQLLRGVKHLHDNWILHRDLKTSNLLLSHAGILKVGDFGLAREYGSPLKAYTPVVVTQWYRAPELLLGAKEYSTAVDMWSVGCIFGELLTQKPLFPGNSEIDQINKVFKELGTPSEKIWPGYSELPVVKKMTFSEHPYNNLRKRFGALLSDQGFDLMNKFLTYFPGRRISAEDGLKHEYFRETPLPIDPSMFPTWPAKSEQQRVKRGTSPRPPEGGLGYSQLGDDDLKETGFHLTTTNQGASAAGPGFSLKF
In words: Selectivity interaction (KinomeScan (DiscoverX)) EUB0000045b CDK11A.

Assay [4] addresses ALK tyrosine kinase receptor (Homo sapiens, UniProt Q9UM73). Kind of assay: Selectivity interaction (ProQinase) EUB0000171b ALK. The note with it: at 1 µM.
For assay [5], the target named is T4, 3-phosphoinositide-dependent protein kinase 1 (Homo sapiens) (UniProt O15530).
T4 sequence (whole entry): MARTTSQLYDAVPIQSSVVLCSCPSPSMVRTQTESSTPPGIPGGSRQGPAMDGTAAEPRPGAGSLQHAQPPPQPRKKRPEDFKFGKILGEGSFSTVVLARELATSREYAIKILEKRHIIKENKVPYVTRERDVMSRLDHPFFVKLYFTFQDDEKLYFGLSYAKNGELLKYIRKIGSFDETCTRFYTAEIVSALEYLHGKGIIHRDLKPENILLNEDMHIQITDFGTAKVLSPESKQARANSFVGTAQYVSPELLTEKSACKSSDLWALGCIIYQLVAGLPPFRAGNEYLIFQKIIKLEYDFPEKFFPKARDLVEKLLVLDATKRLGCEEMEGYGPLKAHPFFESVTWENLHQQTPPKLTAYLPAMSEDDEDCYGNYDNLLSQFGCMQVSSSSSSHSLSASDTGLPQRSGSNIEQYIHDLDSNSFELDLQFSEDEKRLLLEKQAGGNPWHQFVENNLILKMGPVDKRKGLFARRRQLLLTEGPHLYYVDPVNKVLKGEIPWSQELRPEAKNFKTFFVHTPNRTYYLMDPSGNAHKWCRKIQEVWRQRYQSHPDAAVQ
In words: Selectivity interaction (KinomeScan (DiscoverX)) EUB0001049a PDPK1. The conditions noted are these: at 1 µM.

Assay [6] has as its target Mitogen-activated protein kinase kinase kinase kinase 4 (Homo sapiens, UniProt O95819). In words: Selectivity interaction (Upstate Kinase Profiler service (Millipore)) EUB0000056c MAP4K4. The note with it: at 1 µM.
Assay [7] concerns the target Nuclear receptor subfamily 1 group I member 2 (Homo sapiens, UniProt O75469). Kind of assay: Selectivity interaction (Pregnane X Receptor (PXR, SXR) binding, human recombinant ) EUB0000877a NR1I2.
Assay [8] has as its target MAP/microtubule affinity-regulating kinase 3 (Homo sapiens) (UniProt P27448). In words: Selectivity interaction (Kinase panel (KiNativ target engagement assay in Jurkat cells)) EUB0001635a MARK3. The conditions noted are these: at 1 µM. The format is cell-based.

pIC50: −log10 of the molar value.

The pIC50 is −log10 of the IC50, conventionally taken in molar units.

Sequence of MAP/microtubule affinity-regulating kinase 3 (Homo sapiens) (P27448 whole entry, looked up): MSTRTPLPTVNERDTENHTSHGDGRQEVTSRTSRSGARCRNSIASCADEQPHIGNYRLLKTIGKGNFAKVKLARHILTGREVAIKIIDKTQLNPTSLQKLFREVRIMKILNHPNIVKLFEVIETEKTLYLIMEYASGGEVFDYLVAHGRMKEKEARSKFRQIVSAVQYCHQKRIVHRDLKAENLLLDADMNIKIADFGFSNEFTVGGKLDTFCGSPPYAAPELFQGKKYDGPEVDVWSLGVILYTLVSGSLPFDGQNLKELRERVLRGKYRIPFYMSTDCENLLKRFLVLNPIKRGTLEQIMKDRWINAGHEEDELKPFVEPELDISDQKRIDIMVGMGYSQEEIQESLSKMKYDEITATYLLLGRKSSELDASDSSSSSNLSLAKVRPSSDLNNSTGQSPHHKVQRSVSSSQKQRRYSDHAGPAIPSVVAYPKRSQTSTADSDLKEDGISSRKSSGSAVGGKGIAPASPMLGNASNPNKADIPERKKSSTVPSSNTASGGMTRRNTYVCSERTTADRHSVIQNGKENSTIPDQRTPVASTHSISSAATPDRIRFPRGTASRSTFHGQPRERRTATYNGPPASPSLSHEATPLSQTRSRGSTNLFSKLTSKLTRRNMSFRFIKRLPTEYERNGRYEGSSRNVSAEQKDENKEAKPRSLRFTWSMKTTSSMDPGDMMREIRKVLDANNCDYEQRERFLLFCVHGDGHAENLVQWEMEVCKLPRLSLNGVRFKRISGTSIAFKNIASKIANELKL
Sequence of ALK tyrosine kinase receptor (Q9UM73 19-1620 limits assumed): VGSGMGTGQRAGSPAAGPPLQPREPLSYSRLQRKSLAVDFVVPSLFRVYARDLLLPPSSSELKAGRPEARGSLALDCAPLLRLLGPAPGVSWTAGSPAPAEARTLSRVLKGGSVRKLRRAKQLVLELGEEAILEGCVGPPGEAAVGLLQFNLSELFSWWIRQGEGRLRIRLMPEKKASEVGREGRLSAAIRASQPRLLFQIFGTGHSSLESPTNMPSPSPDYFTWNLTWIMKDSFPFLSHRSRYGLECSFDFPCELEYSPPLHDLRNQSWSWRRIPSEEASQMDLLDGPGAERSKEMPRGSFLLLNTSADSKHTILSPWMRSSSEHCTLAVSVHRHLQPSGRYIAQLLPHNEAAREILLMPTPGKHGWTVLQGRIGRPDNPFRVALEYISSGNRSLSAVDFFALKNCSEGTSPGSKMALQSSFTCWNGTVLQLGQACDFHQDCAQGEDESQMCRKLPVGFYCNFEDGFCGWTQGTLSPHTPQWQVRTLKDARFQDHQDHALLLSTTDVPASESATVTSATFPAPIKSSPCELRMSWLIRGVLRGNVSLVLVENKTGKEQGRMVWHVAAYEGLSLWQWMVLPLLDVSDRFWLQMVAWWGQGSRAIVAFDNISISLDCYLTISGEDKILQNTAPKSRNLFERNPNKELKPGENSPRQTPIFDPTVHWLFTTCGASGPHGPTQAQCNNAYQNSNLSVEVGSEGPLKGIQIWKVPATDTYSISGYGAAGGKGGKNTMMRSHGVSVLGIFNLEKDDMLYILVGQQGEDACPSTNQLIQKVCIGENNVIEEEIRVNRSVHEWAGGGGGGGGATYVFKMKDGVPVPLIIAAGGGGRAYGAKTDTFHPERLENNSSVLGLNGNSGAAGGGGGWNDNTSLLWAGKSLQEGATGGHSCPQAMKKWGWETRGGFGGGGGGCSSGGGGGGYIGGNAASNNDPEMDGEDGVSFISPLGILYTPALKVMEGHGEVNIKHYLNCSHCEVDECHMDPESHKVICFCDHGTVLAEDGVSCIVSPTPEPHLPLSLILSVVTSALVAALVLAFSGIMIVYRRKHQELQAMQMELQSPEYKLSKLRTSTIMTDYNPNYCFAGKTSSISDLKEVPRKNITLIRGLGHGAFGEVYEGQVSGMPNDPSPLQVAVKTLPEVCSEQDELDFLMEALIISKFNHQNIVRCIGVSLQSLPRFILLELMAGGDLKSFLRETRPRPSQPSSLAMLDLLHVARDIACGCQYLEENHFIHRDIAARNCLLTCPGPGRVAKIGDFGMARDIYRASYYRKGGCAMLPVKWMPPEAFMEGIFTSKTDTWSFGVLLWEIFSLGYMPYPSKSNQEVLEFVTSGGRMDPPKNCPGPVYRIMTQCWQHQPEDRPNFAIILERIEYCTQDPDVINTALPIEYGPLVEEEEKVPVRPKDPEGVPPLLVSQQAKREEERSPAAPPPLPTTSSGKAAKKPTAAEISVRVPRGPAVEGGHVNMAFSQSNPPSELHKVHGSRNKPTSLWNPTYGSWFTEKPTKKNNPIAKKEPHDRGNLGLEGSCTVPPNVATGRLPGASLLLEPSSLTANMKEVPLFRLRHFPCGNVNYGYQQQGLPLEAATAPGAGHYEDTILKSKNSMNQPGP
Sequence of Nuclear receptor subfamily 1 group I member 2 (O75469 whole entry): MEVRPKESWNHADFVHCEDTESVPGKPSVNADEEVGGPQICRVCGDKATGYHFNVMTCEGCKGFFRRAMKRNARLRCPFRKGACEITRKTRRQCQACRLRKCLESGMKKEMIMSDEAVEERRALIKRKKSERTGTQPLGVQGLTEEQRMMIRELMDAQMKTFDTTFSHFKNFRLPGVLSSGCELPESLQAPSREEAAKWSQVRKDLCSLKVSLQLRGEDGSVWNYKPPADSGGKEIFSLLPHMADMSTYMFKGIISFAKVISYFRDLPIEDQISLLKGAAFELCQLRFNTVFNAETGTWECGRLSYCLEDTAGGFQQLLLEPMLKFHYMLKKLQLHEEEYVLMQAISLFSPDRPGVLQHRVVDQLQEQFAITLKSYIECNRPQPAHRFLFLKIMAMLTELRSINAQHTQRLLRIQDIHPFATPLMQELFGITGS
Sequence of Mitogen-activated protein kinase kinase kinase kinase 4 (O95819 2-1239 limits assumed): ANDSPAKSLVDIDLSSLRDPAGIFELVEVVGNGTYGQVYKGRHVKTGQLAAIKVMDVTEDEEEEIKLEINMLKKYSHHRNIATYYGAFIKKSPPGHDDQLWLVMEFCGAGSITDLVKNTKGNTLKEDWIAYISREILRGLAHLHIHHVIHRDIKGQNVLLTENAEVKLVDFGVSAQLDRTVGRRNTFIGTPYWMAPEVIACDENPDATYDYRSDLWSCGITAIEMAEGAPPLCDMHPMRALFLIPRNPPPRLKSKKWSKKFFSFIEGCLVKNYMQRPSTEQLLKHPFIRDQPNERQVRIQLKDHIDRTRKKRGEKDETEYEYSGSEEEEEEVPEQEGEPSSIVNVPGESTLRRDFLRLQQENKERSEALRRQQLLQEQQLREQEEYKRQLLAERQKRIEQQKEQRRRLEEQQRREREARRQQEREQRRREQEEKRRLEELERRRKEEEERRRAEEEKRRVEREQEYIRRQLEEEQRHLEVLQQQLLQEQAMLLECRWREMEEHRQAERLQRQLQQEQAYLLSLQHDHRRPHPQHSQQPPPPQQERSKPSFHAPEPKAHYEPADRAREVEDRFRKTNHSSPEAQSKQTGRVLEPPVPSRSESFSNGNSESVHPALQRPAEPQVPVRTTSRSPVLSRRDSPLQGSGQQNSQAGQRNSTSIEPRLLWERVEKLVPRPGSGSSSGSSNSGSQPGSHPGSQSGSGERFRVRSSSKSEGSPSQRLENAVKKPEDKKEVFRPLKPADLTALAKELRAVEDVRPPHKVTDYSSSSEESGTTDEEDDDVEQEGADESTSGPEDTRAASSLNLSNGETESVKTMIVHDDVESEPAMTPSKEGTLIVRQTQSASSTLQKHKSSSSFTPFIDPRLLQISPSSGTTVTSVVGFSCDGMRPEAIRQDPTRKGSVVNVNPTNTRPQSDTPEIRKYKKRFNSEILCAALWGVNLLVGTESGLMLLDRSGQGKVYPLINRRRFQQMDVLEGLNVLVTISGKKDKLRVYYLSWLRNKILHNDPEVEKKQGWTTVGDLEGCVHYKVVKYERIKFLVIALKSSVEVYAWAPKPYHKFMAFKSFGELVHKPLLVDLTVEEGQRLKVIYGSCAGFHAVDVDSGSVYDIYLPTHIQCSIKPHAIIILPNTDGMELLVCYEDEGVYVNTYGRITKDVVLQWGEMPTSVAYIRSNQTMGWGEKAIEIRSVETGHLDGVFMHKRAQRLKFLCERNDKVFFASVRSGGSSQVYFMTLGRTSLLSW

As to `Cc1cc(F)c(C(=O)Nc2cccc(-c3nncn3C(C)C)n2)cc1-n1cnc(C2CC2)c1`, the % of control in assay [1] turned out to be 100%.

Turning to `Cc1cc([C@@H](C)Nc2ccccc2C(=O)O)c2nc(N3CCOCC3)cc(=O)n2c1` [AZD-6482], the % of control in assay [2] turned out to be 100%. As to `C=CC(=O)Nc1cc(-n2c(=O)ccc3cnc4ccc(-c5ccc(NS(C)(=O)=O)cc5)cc4c32)ccc1C`, the % of control stood at 90% in assay [3] (at 1 µM) and 44% in assay [3] (at 10 µM). In turn, `C=CC(=O)Nc1cccc(C(=O)Nc2ccc(Nc3cc(-c4[nH]c(SC)nc4C)ccn3)cc2)c1` displayed a % of control in assay [4] of 94%. For `COc1cc(Nc2nc(C)cc(-c3cnn4nc(OC)ccc34)n2)cc(C(F)(F)F)c1`, in assay [5], the % of control worked out at 100%. The compound `Cc1ccc(-c2ccc3c(ccc4sc5c(c43)NC[C@@H](C)NC5=O)n2)cn1` returned a % of inhibition in assay [6] of 43%. In the case of `CCC(=O)N1CC[C@H](Nc2ncnc3c2CN(c2cnc(OC)c(C(F)(F)F)c2)CC3)C1` [LENIOLISIB], in assay [7], the pIC50 was less than 4.52. On to `C=CC(=O)Nc1ccc(C(=O)Nc2[nH]nc3c2CN(C(=O)N[C@H](CN(C)C)c2ccccc2)C3(C)C)cc1`, for which the % of engagement turned out to be 16.4% in assay [8] (Selectivity number of off-targets 0.0, Selectivity number of targets 233.0, Source Knowledge https://www.sciencedirect.com/science/article/pii/S2451945619300674?via%3Dihub) and 19.1% in assay [8].

The values above are taken from ChEMBL document CHEMBL5465560, “Selectivity Literature for EUbOPEN Chemogenomic Library” (2024).
